Each structure is given as a SMILES string.

Format in all cases: cell-based
In assay [1] the target is T1, heteromeric KV7.2/KV7.3 channels (KCNQ2, KCNQ3) (Homo sapiens, UniProt O43525+O43526).
T1 construct: expressed in transfected cells; host or cells: CHO-K1
The assay is described as follows: Automated patch-clamp (Sophion Qube 384) potency assay against KV7.2/KV7.3 channels. The settings on record: CHO-K1/Kv7.2/Kv7.3 cells; for EC50: EC50 from concentration-response of shift in Vhalf, 10 concentrations up to 30 μM, read-out: Kv7.2/7.3 EC50; for Kv7.2/7.3 ΔV1/2: maximal shift in the Vhalf from the top of the curve. In short, it runs like this: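 Whole-cell automated patch clamp on CHO-K1 cells stably expressing human KV7.2/KV7.3, held at −80 mV; I-V steps −100 to +20 mV (1 s) with 0 mV tail pulses, Boltzmann-fitted activation curves. Ten concentrations (1:3 from 30 μM, quadruplicate) versus 0.3% DMSO control; EC50 and maximal shift from 4-parameter fits of Vhalf shift.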

In assay [2] the target is T2, heteromeric KV7.3/KV7.5 channel (KCNQ3, KCNQ5) (Homo sapiens, UniProt O43525+Q9NR82).
T2 construct: host or cells: HEK293
Put plainly: Automated patch-clamp counter-screening against KV7.3/KV7.5 channel. To be noted: HEK293 cells expressing Kv7.3/KV7.5; class by maximal shift in the Vhalf at 30 μM. The gist of the method:
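HEK293 cells with constitutive Kv7.3 and tetracycline-inducible Kv7.5 were recorded by automated patch clamp. Ten concentrations (1:3 series from 30 μM, quadruplicate) were tested; Vhalf shifts were fitted with a 4-parameter logistic to give EC50 and maximal Vhalf shift, with selectivity based on the shift at 30 μM.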
(In general: Patch clamp records ionic current or voltage across a cell membrane.)

Assay [3] deals with T3, homomeric KV7.4 channel (KCNQ4) (Homo sapiens, UniProt P56696).
T3 construct: host or cells: CHO-K1
The assay is described as follows: Automated patch-clamp (Qube) counter-screening assay against KV7.4 channel. The settings on record: CHO-K1 cells expressing KV7.4; class by maximal shift in the Vhalf at 30 μM. In short, it runs like this: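 CHO-K1 cells stably expressing homomeric human KV7.4 were recorded on the Qube automated patch clamp. Ten concentrations (1:3 dilutions from 30 μM) were tested in quadruplicate. The mean Vhalf shift was fitted with a 4-parameter logistic to give EC50 and maximal Vhalf shift, and selectivity was based on the shift at 30 μM.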

Take `CC1CC(NC(=O)NCc2ccnc(OCC(F)(F)F)c2)c2ccccc21` (centres unmarked) [Compound 139]: in assay [1], the EC50 was determined as 2240 nM and the “Kv7.2/7.3 ΔV1/2” value was 34.89 mV. For the same molecule, in assay [2], the Kv7.3/7.5 selectivity criteria entry was “A (Selective compounds showed Kv7.4 and/or Kv7.3/7.5 ΔV1/2 equal to or lower than 15 mV (letter A in table 3))”. Further, the Kv7.4 selectivity criteria result in assay [3] is reported as “A (Selective compounds showed Kv7.4 and/or Kv7.3/7.5 ΔV1/2 equal to or lower than 15 mV (letter A in table 3))”.

On to `CC(C)(C)[C@@H](O)CNC(=O)NCc1ccnc(OCC(F)(F)C(F)(F)F)c1` [Compound 73, (R)-1-(2-Hydroxy-3,3-dimethylbutyl)-3-((2-(2,2,3,3,3-pentafluoropropoxy)pyridin-4-yl)methyl)urea], for which, in assay [1], the EC50 stood at 2470 nM and the “Kv7.2/7.3 ΔV1/2” value is given as 26.35 mV. Besides, in assay [2], the Kv7.3/7.5 selectivity criteria entry is listed as “A (Selective compounds showed Kv7.4 and/or Kv7.3/7.5 ΔV1/2 equal to or lower than 15 mV (letter A in table 3))”. For the same molecule, the Kv7.4 selectivity criteria entry in assay [3] is given as “A (Selective compounds showed Kv7.4 and/or Kv7.3/7.5 ΔV1/2 equal to or lower than 15 mV (letter A in table 3))”.

For `CC(F)(F)COc1cc(CNC(=O)NCCC2(C(F)(F)F)CC2)ccn1` [Compound 20, 1-((2-(2,2-Difluoropropoxy)pyridin-4-yl)methyl)-3-(2-(1-(trifluoromethyl)cyclopropyl)ethyl)urea], in assay [1], the EC50 amounted to 689 nM and the “Kv7.2/7.3 ΔV1/2” value is reported as 29.4 mV. In addition, the Kv7.3/7.5 selectivity criteria result in assay [2] is recorded as “A (Selective compounds showed Kv7.4 and/or Kv7.3/7.5 ΔV1/2 equal to or lower than 15 mV (letter A in table 3))”. Besides, the Kv7.4 selectivity criteria entry in assay [3] is given as “A (Selective compounds showed Kv7.4 and/or Kv7.3/7.5 ΔV1/2 equal to or lower than 15 mV (letter A in table 3))”.

`O=C(NCc1ccnc(OCC(F)(F)F)c1)NC1CCSc2ccccc21` (centres unmarked) [Compound 152]: in assay [1], the EC50 came out at 1350 nM and the “Kv7.2/7.3 ΔV1/2” value came out at 36.08 mV. Besides, the Kv7.3/7.5 selectivity criteria entry in assay [2] was “B (Non-selective compounds showed Kv7.4 and/or Kv7.3/7.5 ΔV1/2 higher than 15 mV (letter B in table 3))”. Further, the Kv7.4 selectivity criteria entry in assay [3] was “B (Non-selective compounds showed Kv7.4 and/or Kv7.3/7.5 ΔV1/2 higher than 15 mV (letter B in table 3))”.

Regarding `N#Cc1cccc2c1CC[C@@H]2NC(=O)NCc1ccnc(OCC(F)(F)F)c1` [Compound 160], in assay [1], the EC50 amounted to 3180 nM and the “Kv7.2/7.3 ΔV1/2” value worked out at 25.41 mV. Also, in assay [2], the Kv7.3/7.5 selectivity criteria entry is listed as “A (Selective compounds showed Kv7.4 and/or Kv7.3/7.5 ΔV1/2 equal to or lower than 15 mV (letter A in table 3))”. Moreover, the Kv7.4 selectivity criteria result in assay [3] is recorded as “A (Selective compounds showed Kv7.4 and/or Kv7.3/7.5 ΔV1/2 equal to or lower than 15 mV (letter A in table 3))”.

As to `Cc1ccc2c(c1)[C@H](NC(=O)NCc1ccnc(OCC(F)(F)F)c1)CC2` [Compound 126], in assay [1], the EC50 turned out to be 3080 nM and the “Kv7.2/7.3 ΔV1/2” value is reported as 42.02 mV. Besides, the Kv7.3/7.5 selectivity criteria result in assay [2] is recorded as “B (Non-selective compounds showed Kv7.4 and/or Kv7.3/7.5 ΔV1/2 higher than 15 mV (letter B in table 3))”. The Kv7.4 selectivity criteria result in assay [3] was “B (Non-selective compounds showed Kv7.4 and/or Kv7.3/7.5 ΔV1/2 higher than 15 mV (letter B in table 3))”.

On to `O=C(NCc1ccnc(OCC(F)(F)F)c1)N[C@H]1c2ccccc2C[C@H]1O` [Compound 155], for which, in assay [1], the EC50 is 9460 nM and the “Kv7.2/7.3 ΔV1/2” value turned out to be 30.26 mV. The Kv7.3/7.5 selectivity criteria result in assay [2] is on record as “B (Non-selective compounds showed Kv7.4 and/or Kv7.3/7.5 ΔV1/2 higher than 15 mV (letter B in table 3))”. In assay [3], the Kv7.4 selectivity criteria result is “B (Non-selective compounds showed Kv7.4 and/or Kv7.3/7.5 ΔV1/2 higher than 15 mV (letter B in table 3))”.

For the molecule `C[C@H](Oc1cc(CNC(=O)NCCC2(C(F)(F)F)CC2)ccn1)C(F)(F)F` [Compound 47, (S)-1-(2-(1-(Trifluoromethyl)cyclopropyl)ethyl)-3-((2-((1,1,1-trifluoropropan-2-yl)oxy)pyridin-4-yl)methyl)urea], in assay [1], the EC50 was found to be 254 nM and the “Kv7.2/7.3 ΔV1/2” value was 26.23 mV. For the same molecule, the Kv7.3/7.5 selectivity criteria entry in assay [2] is given as “A (Selective compounds showed Kv7.4 and/or Kv7.3/7.5 ΔV1/2 equal to or lower than 15 mV (letter A in table 3))”. Besides, in assay [3], the Kv7.4 selectivity criteria entry is reported as “A (Selective compounds showed Kv7.4 and/or Kv7.3/7.5 ΔV1/2 equal to or lower than 15 mV (letter A in table 3))”.

In the case of `O=C(NCc1ccnc(OCC(F)(F)F)c1)N[C@@H]1CCc2cc(Cl)ccc21` [Compound 127], in assay [1], the EC50 turned out to be 1600 nM and the “Kv7.2/7.3 ΔV1/2” value worked out at 30.45 mV. Moreover, the Kv7.3/7.5 selectivity criteria result in assay [2] is given as “B (Non-selective compounds showed Kv7.4 and/or Kv7.3/7.5 ΔV1/2 higher than 15 mV (letter B in table 3))”. Also, the Kv7.4 selectivity criteria entry in assay [3] is given as “B (Non-selective compounds showed Kv7.4 and/or Kv7.3/7.5 ΔV1/2 higher than 15 mV (letter B in table 3))”.

Turning to `O=C(NCCC1(C(F)(F)F)CC1)NCc1ccnc(OCc2ccc(F)cc2)c1` [Compound 14, 1-((2-((4-Fluorobenzyl)oxy)pyridin-4-yl)methyl)-3-(2-(1-(trifluoromethyl)cyclopropyl)ethyl)urea], in assay [1], the EC50 was found to be 392 nM and the “Kv7.2/7.3 ΔV1/2” value is 26.52 mV. The Kv7.3/7.5 selectivity criteria result in assay [2] is “A (Selective compounds showed Kv7.4 and/or Kv7.3/7.5 ΔV1/2 equal to or lower than 15 mV (letter A in table 3))”. Also, in assay [3], the Kv7.4 selectivity criteria entry was “B (Non-selective compounds showed Kv7.4 and/or Kv7.3/7.5 ΔV1/2 higher than 15 mV (letter B in table 3))”.

In the case of `O=C(NCCC1(C(F)(F)F)CC1)NCc1ccnc(OCC2(F)CC2)c1` [Compound 22, 1-((2-((1-Fluorocyclopropyl)methoxy)pyridin-4-yl)methyl)-3-(2-(1-(trifluoromethyl)cyclopropyl)ethyl)urea], in assay [1], the EC50 is 1940 nM and the “Kv7.2/7.3 ΔV1/2” value was found to be 27.07 mV. The Kv7.3/7.5 selectivity criteria entry in assay [2] is reported as “A (Selective compounds showed Kv7.4 and/or Kv7.3/7.5 ΔV1/2 equal to or lower than 15 mV (letter A in table 3))”. The Kv7.4 selectivity criteria entry in assay [3] is recorded as “A (Selective compounds showed Kv7.4 and/or Kv7.3/7.5 ΔV1/2 equal to or lower than 15 mV (letter A in table 3))”.

In the case of `O=C(NCCC1(C(F)(F)F)CC1)NCc1cc(OCC(F)(F)F)nc(C(F)(F)F)c1` [Compound 82, 1-((2-(2,2,2-Trifluoroethoxy)-6-(trifluoromethyl)pyridin-4-yl)methyl)-3-(2-(1-(trifluoromethyl)cyclopropyl)ethyl)urea], in assay [1], the EC50 is 2150 nM and the “Kv7.2/7.3 ΔV1/2” value is recorded as 18.38 mV. For the same molecule, in assay [2], the Kv7.3/7.5 selectivity criteria result is reported as “A (Selective compounds showed Kv7.4 and/or Kv7.3/7.5 ΔV1/2 equal to or lower than 15 mV (letter A in table 3))”. In addition, the Kv7.4 selectivity criteria result in assay [3] was “B (Non-selective compounds showed Kv7.4 and/or Kv7.3/7.5 ΔV1/2 higher than 15 mV (letter B in table 3))”.

Turning to `O=C(NCc1ccnc(OCC(F)(F)F)c1)N[C@@H]1CCCOc2ccccc21` [Compound 150], in assay [1], the EC50 stood at 1310 nM and the “Kv7.2/7.3 ΔV1/2” value turned out to be 30.15 mV. For the same molecule, the Kv7.3/7.5 selectivity criteria entry in assay [2] is “A (Selective compounds showed Kv7.4 and/or Kv7.3/7.5 ΔV1/2 equal to or lower than 15 mV (letter A in table 3))”. Moreover, the Kv7.4 selectivity criteria entry in assay [3] is given as “B (Non-selective compounds showed Kv7.4 and/or Kv7.3/7.5 ΔV1/2 higher than 15 mV (letter B in table 3))”.

Regarding `O=C(NCCC1(C(F)(F)F)CC1)NCc1cc(OCC(F)(F)F)nc(N2CCOCC2)c1` [Compound 26, 1-((2-Morpholino-6-(2,2,2-trifluoroethoxy)pyridin-4-yl)methyl)-3-(2-(1-(trifluoromethyl)cyclopropyl)ethyl)urea], in assay [1], the EC50 worked out at 5140 nM and the “Kv7.2/7.3 ΔV1/2” value was 31.67 mV. For the same molecule, the Kv7.3/7.5 selectivity criteria entry in assay [2] is “A (Selective compounds showed Kv7.4 and/or Kv7.3/7.5 ΔV1/2 equal to or lower than 15 mV (letter A in table 3))”. Further, the Kv7.4 selectivity criteria result in assay [3] is reported as “B (Non-selective compounds showed Kv7.4 and/or Kv7.3/7.5 ΔV1/2 higher than 15 mV (letter B in table 3))”.

These data come from patent publication US20260207563A1, “UREA COMPOUNDS AS ACTIVATORS OF POTASSIUM CHANNELS KV7.2/7.3 USEFUL IN THE TREATMENT OF CNS AND PNS DISORDERS” (ANGELINI PHARMA S.P.A., priority 2022, published 2026).
